Key:
HIV-1 IIIB = experiment: Syncytia assay (anti-HIV-1 activity in acutely infected C8166 cells); assay type: cell-based; conditions: Human immunodeficiency virus 1, 72 h; concentration that reduces syncytia formation by 50%; C8166 cells infected with HIV-1 IIIB, M.O.I 0.06, 3 days; means of two separate experiments; read-out: EC50 (50% effective concentration)
Procedure: (§1) Cell line (C8166) and the laboratory-derived virus (HIV-1 IIIB) were obtained from the MRC, AIDS Reagent Project, London, UK. C8166 was maintained in RPMI-1640 supplemented with 10% heat-inactivated new born calf serum (Gibco, USA). The cells used in all experiments were in log-phase growth. The 50% HIV-1 IIIB tissue culture infectious dose (TCID50) in C8166 cells was determined and calculated by the Reed and Muench method. Virus stocks were stored in small aliquots at −70 °C [11].
In the presence of 100 μL of various concentrations of compounds, C8166 cells (4 × 10^5/mL) were infected with virus HIV-1IIIB at a multiplicity of infection (M.O.I) of 0.06. The final volume per well was 200 μL. Control assays were performed without the testing compounds in HIV-1IIIB infected and uninfected cultures. After 3 days of culture, the cytopathic effect (CPE) was measured by counting the number of syncytia. Percentage inhibition of syncytia formation was calculated and 50% effective concentration (EC50) was calculated. AZT (Sigma, USA) was used as a positive control. Therapeutic index (TI) = CC50/EC50 [13].

[1] = MTT-based cytotoxicity assay; conditions: human, C8166 cells, concentration that causes 50% reduction in total C8166 cell number, means of two separate experiments, read-out: CC50 (50% cytotoxic concentration)
Procedure: as §1
Cellular toxicity of compounds 4a–f and 6 on C8166 cells was assessed by the MTT method as described previously. Briefly, cells were seeded on 96-well microtiter plate in the absence or presence of various concentrations of compounds in triplicate and incubated at 37 °C in a humid atmosphere of 5% CO2 for 3 days. The supernatants were discarded and MTT reagent (5 mg/mL in PBS) was added to each wells, then incubated for 4 h, 100 μL of 50% DMF-20% SDS was added. After the formazan was dissolved completely, the plates were read on a Bio-TekElx800 ELISA reader at 595/630 nm. The cytotoxic concentration that caused the reduction of viable C8166 cells by 50% (CC50) was determined from dose-response curve.

Structure (SMILES)	EC50 (HIV-1 IIIB) [µM]	melting point [°C]	CC50 at 3 days [1] [µM]
Cc1ccc2c(C(=O)CN3CCCC3)cn(S(=O)(=O)c3ccccc3)c2c1 [Compound 4c, N-Phenylsulfonyl-3-[2-pyrrolidinoethanone]-6-methylindole]	106	124 to 126	226
CCCCNCC(=O)c1cn(S(=O)(=O)c2ccccc2)c2cc(C)ccc12 [Compound 4e, N-Phenylsulfonyl-3-[2-butylaminoethanone]-6-methylindole]	30		43.8
Cc1ccc2c(C(=O)CN3CCOCC3)cn(S(=O)(=O)c3ccccc3)c2c1 [Compound 4b, N-Phenylsulfonyl-3-[2-morpholinoethanone]-6-methylindole]	56.6	174 to 176	> 502
Cc1ccc2c(C(=O)CN(C(C)C)C(C)C)cn(S(=O)(=O)c3ccccc3)c2c1 [Compound 4d, N-Phenylsulfonyl-3-[2-diisopropylaminoethanone]-6-methylindole]	17.9		220
Cc1ccc2c(C(=O)CN3CCCCC3)cn(S(=O)(=O)c3ccccc3)c2c1 [Compound 4a, N-Phenylsulfonyl-3-[2-piperidinylethanone]-6-methylindole]	32.8	132 to 134	> 504

Stronger by EC50 (HIV-1 IIIB), values ahead:

EC50 (HIV-1 IIIB) [µM]	melting point [°C]	Structure (SMILES)	CC50 at 3 days [1] [µM]
9.42		CCc1ccc(S(=O)(=O)n2cc(C(=O)CN3CCOCC3)c3ccc(C)cc32)cc1 [Compound 4f, N-(p-Ethyl)phenylsulfonyl-3-[2-morpholinoethanone]-6-methylindole]	> 469
4.62	122 to 124	CCc1ccc(S(=O)(=O)n2cc(C(=O)CSc3nnc(-c4ccccc4)o3)c3ccc(C)cc32)cc1 [Compound 6, N-(p-Ethyl)phenylsulfonyl-3-[2-(5-phenyl-1,3,4-oxadiazole-2-yl-thio)ethanone]-6-methylindole]	309
0.0121		Cc1cn([C@H]2C[C@H](N=[N+]=[N-])[C@@H](CO)O2)c(=O)[nH]c1=O [AZT, 3'-azido-3'-deoxythymidine, reference compound]	4260

— paper PMC4491657, “Design and Synthesis of Novel N-Arylsulfonyl-3-(2-yl-ethanone)-6-methylindole Derivatives as Inhibitors of HIV-1 Replication” (Pharmaceuticals, 2015)
